Experimental data from US20080188502A1, “New Compounds I” (AstraZeneca AB, priority 2006, published 2008).
Structures can show the parent of a compound that is named as a salt.

Target: T1, recombinant human GSK3β (Homo sapiens, UniProt P49841)
T1 construct: purchased Dundee University, UK
Assay: GSK3β Scintillation Proximity Assay (ATP competition)
Type: biochemical
Conditions: inhibition constants calculated with Km of ATP for GSK3β of 20 μM; 1 μM ATP, 1 μM biotinylated peptide substrate
Procedure: Determination of ATP Competition in Scintillation Proximity GSK3β Assay.
GSK3β Scintillation Proximity Assay.
The competition experiments were carried out in duplicate with 10 different concentrations of the inhibitors in clear-bottom microtiter plates (Wallac, Finland). A biotinylated peptide substrate, Biotin-Ala-Ala-Glu-Glu-Leu-Asp-Ser-Arg-Ala-Gly-Ser(PO3H2)-Pro-Gln-Leu (AstraZeneca, Lund), was added at a final concentration of 1 μM in an assay buffer containing 1 mU recombinant human GSK3β (Dundee University, UK), 12 mM morpholinepropanesulfonic acid (MOPS), pH 7.0, 0.3 mM EDTA, 0.01% β-mercaptoethanol, 0.004% Brij 35 (a […] detergent), 0.5% glycerol and 0.5 μg BSA/25 μl. The reaction was initiated by the addition of 0.04 μCi [γ-^33P]ATP (Amersham, UK) and unlabelled ATP at a final concentration of 1 μM and assay volume of 25 μl. After incubation for 20 minutes at room temperature, each reaction was terminated by the addition of 25 μl stop solution containing 5 mM EDTA, 50 μM ATP, 0.1% Triton X-100 and 0.25 mg streptavidin coated Scintillation Proximity Assay (SPA) beads (Amersham, UK). After 6 hours the radioactivity was determined in a liquid scintillation counter (1450 MicroBeta Trilux, Wallac). The inhibition curves were analysed by non-linear regression using GraphPad Prism, USA. The Km value of ATP for GSK3β, used to calculate the inhibition constants (Ki) of the various compounds, was 20 μM.

T1 sequence (P49841 whole entry): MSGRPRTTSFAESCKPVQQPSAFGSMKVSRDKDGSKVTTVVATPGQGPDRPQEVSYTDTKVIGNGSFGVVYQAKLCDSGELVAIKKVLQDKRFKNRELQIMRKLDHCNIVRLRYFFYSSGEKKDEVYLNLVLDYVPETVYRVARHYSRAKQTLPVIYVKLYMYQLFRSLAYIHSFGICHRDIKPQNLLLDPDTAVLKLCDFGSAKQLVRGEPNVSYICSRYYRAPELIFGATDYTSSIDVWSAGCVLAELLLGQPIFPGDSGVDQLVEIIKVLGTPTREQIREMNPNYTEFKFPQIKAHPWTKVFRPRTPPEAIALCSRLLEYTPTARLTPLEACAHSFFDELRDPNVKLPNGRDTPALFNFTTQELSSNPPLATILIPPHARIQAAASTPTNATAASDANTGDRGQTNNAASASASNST

SMILES | Ki
CCN1CCN(C(=O)c2ccc(Nc3ncc(F)c(-c4cnc(C)n4C4CCOCC4)n3)cn2)CC1 [Example 17, (4-Ethylpiperazin-1-yl)-[5-[[5-fluoro-4-[2-methyl-3-(oxan-4-yl)imidazol-4-yl]pyrimidin-2-yl]amino]pyridin-2-yl]methanone] | 50 nM
Cc1ncc(-c2nc(Nc3cnc(C(=O)N4CCCCC4)c(Cl)c3)ncc2F)n1C1CCOCC1 [Example 54, N-[5-Chloro-6-(piperidin-1-ylcarbonyl)pyridin-3-yl]-5-fluoro-4-[2-methyl-1-(tetrahydro-2H-pyran-4-yl)-1H-imidazol-5-yl]pyrimidin-2-amine hydrocholoride, hydrochloride] | 7 nM
Cc1ncc(-c2nc(Nc3ccc(C(=O)NCC(C)(C)CN(C)C)nc3)ncc2F)n1C1CCOCC1 [Example 39, N-(3-Dimethylamino-2,2-dimethyl-propyl)-5-[[5-fluoro-4-[2-methyl-3-(oxan-4-yl)imidazol-4-yl]pyrimidin-2-yl]amino]pyridine-2-carboxamide] | 160 nM
COC1CCN(C(=O)c2ccc(Nc3ncc(F)c(-c4cnc(C)n4C4CCOCC4)n3)cn2)CC1 [Example 25, [5-[[5-Fluoro-4-[2-methyl-3-(oxan-4-yl)imidazol-4-yl]pyrimidin-2-yl]amino]pyridin-2-yl]-(4-methoxy-1-piperidyl)methanone] | 28 nM
Cc1ncc(-c2nc(Nc3ccc(S(C)(=O)=O)cn3)ncc2F)n1C1CCOCC1 [Example 1, 5-Fluoro-N-[5-(methylsulfonyl)pyridin-2-yl]-4-[2-methyl-1-(tetrahydro-2H-pyran-4-yl)-1H-imidazol-5-yl]pyrimidin-2-amine hydrochloride] | 468 nM
CCCCN1CCN(C(=O)c2ccc(Nc3ncc(F)c(-c4cnc(C)n4C4CCOCC4)n3)cn2)CC1 [Example 18, (4-Butylpiperazin-1-yl)-[5-[[5-fluoro-4-[2-methyl-3-(oxan-4-yl)imidazol-4-yl]pyrimidin-2-yl]amino]pyridin-2-yl]methanone] | 47 nM
Cc1ncc(-c2nc(Nc3ccc(S(=O)(=O)C(C)C)nc3)ncc2F)n1C1CCOCC1 [Example 50, {5-Fluoro-4-[2-methyl-3-(tetrahydro-pyran-4-yl)-3H-imidazol-4-yl]-pyrimidin-2-yl}-[6-(propan-2-ylsulfonyl)-pyridin-3-yl]-amine] | 33 nM
Cc1ncc(-c2nc(Nc3ccc(C(=O)N4CCC(F)CC4)nc3)ncc2F)n1C1CCOCC1 [Example 32, [5-[[5-Fluoro-4-[2-methyl-3-(oxan-4-yl)imidazol-4-yl]pyrimidin-2-yl]amino]pyridin-2-yl]-(4-fluoro-1-piperidyl)methanone] | 33 nM
Cc1ncc(-c2nc(Nc3ccc(C(=O)N4CC(C)CC(C)C4)nc3)ncc2F)n1C1CCOCC1 (stereo not drawn) [Example 40, (3,5-Dimethyl-1-piperidyl)-[5-[[5-fluoro-4-[2-methyl-3-(oxan-4-yl)imidazol-4-yl]pyrimidin-2-yl]amino]pyridin-2-yl]methanone] | 16 nM
Cc1ncc(-c2nc(Nc3cnc(C(=O)N4CCCCC4)c(Cl)c3)ncc2F)n1C [Example 55, N-[5-Chloro-6-(piperidin-1-ylcarbonyl)pyridin-3-yl]-4-(1,2-dimethyl-1H-imidazol-5-yl)-5-fluoropyrimidin-2-amine hydrochloride] | 18 nM
Cc1ncc(-c2nc(Nc3ccc(C(=O)N4CCC(c5ccc(F)cc5)CC4)nc3)ncc2F)n1C1CCOCC1 [Example 16, [5-[[5-Fluoro-4-[2-methyl-3-(oxan-4-yl)imidazol-4-yl]pyrimidin-2-yl]amino]pyridin-2-yl]-[4-(4-fluorophenyl)-1-piperidyl]methanone] | 9 nM
CN1CCN(C(=O)c2ncc(Nc3ncc(F)c(-c4cnc(C(F)(F)F)n4C)n3)cc2Cl)CC1 [Example 44, [3-Chloro-5-[[5-fluoro-4-[3-methyl-2-(trifluoromethyl)imidazol-4-yl]pyrimidin-2-yl]amino]pyridin-2-yl]-(4-methylpiperazin-1-yl)methanone] | 55 nM
Cc1ncc(-c2nc(Nc3ccc(C(=O)N4C(C)CCCC4C)nc3)ncc2F)n1C1CCOCC1 (stereo not drawn) [Example 23, (2,6-Dimethyl-1-piperidyl)-[5-[[5-fluoro-4-[2-methyl-3-(oxan-4-yl)imidazol-4-yl]pyrimidin-2-yl]amino]pyridin-2-yl]methanone] | 41 nM
Cc1ncc(-c2nc(Nc3ccc(S(C)(=O)=O)nc3)ncc2F)n1C1CCOCC1 [Example 2, 5-Fluoro-N-[6-(methylsulfonyl)pyridin-3-yl]-4-[2-methyl-1-(tetrahydro-2H-pyran-4-yl)-1H-imidazol-5-yl]pyrimidin-2-amine] | 40 nM
Cc1ncc(-c2nc(Nc3ccc(S(=O)(=O)N(C)C)nc3)ncc2F)n1C1CCOCC1 [Example 53] | 20 nM
Cc1ncc(-c2nc(Nc3ccc(C(=O)N4CCN(C)CC4)nc3)ncc2F)n1C [Example 47, 4-(1,2-Dimethyl-1H-imidazol-5-yl)-5-fluoro-N-{6-[(4-methylpiperazin-1-yl)carbonyl]pyridin-3-yl}pyrimidin-2-amine] | 100 nM
CCN(CC)C(=O)c1ccc(Nc2ncc(F)c(-c3cnc(C)n3C3CCOCC3)n2)cn1 [Example 38, N,N-Diethyl-5-[[5-fluoro-4-[2-methyl-3-(oxan-4-yl)imidazol-4-yl]pyrimidin-2-yl]amino]pyridine-2-carboxamide] | 29 nM
Cc1ncc(-c2nc(Nc3ccc(C(=O)N4CCC(F)(F)C4)nc3)ncc2F)n1C1CCOCC1 [Example 13, (3,3-Difluoropyrrolidin-1-yl)-[5-[[5-fluoro-4-[2-methyl-3-(oxan-4-yl)imidazol-4-yl]pyrimidin-2-yl]amino]pyridin-2-yl]methanone] | 34 nM
CCCN1CCN(C(=O)c2ccc(Nc3ncc(F)c(-c4cnc(C)n4C4CCOCC4)n3)cn2)CC1 [Example 37, [5-[[5-Fluoro-4-[2-methyl-3-(oxan-4-yl)imidazol-4-yl]pyrimidin-2-yl]amino]pyridin-2-yl]-(4-propylpiperazin-1-yl)methanone] | 56 nM
Cc1ncc(-c2nc(Nc3ccc(C(=O)N(C)C(C)C)nc3)ncc2F)n1C1CCOCC1 [Example 15, 5-[[5-Fluoro-4-[2-methyl-3-(oxan-4-yl)imidazol-4-yl]pyrimidin-2-yl]amino]-N-methyl-N-propan-2-yl-pyridine-2-carboxamide] | 43 nM
Cc1ncc(-c2nc(Nc3ccc(S(=O)(=O)NCC(F)(F)F)nc3)ncc2F)n1C1CCOCC1 [Example 52] | 39 nM
Cc1ncc(-c2nc(Nc3ccc(C(=O)N4CCN(C)CC4)cn3)ncc2F)n1C1CCOCC1 [Example 3, 5-Fluoro-N-{5-[(4-methylpiperazin-1-yl)carbonyl]pyridin-2-yl}-4-[2-methyl-1-(tetrahydro-2H-pyran-4-yl)-1H-imidazol-5-yl]pyrimidin-2-amine] | 661 nM
CCCN(CC1CC1)C(=O)c1ccc(Nc2ncc(F)c(-c3cnc(C)n3C3CCOCC3)n2)cn1 [Example 35] | 20 nM
Cc1ncc(-c2nc(Nc3ccc(C(=O)N(C(C)C)C(C)C)nc3)ncc2F)n1C1CCOCC1 [Example 22, 5-[[5-Fluoro-4-[2-methyl-3-(oxan-4-yl)imidazol-4-yl]pyrimidin-2-yl]amino]-N,N-dipropan-2-yl-pyridine-2-carboxamide] | 67 nM
CCOc1ccc(Nc2ncc(F)c(-c3cnc(C)n3C3CCOCC3)n2)cn1 [Example 10, (6-Ethoxy-pyridin-3-yl)-{5-fluoro-4-[2-methyl-3-(tetrahydro-pyran-4-yl)-3H-imidazol-4-yl]-pyrimidin-2-yl}-amine] | 45 nM
CCS(=O)(=O)c1ccc(Nc2ncc(F)c(-c3cnc(C)n3C3CCOCC3)n2)cn1 [Example 51, (6-Ethanesulfonyl-pyridin-3-yl)-{5-fluoro-4-[2-methyl-3-(tetrahydro-pyran-4-yl)-3H-imidazol-4-yl]-pyrimidin-2-yl}-amine] | 21 nM
Cc1ncc(-c2nc(Nc3ccc(C(=O)N4CCN(c5ccc(F)cc5)CC4)nc3)ncc2F)n1C1CCOCC1 [Example 36, [5-[[5-Fluoro-4-[2-methyl-3-(oxan-4-yl)imidazol-4-yl]pyrimidin-2-yl]amino]pyridin-2-yl]-[4-(4-fluorophenyl)piperazin-1-yl]methanone] | 10 nM
COc1ncc(Nc2ncc(F)c(-c3cnc(C)n3C3CCOCC3)n2)cn1 [Example 11, {5-Fluoro-4-[2-methyl-3-(tetrahydro-pyran-4-yl)-3H-imidazol-4-yl]-pyrimidin-2-yl}-(2-methoxy-pyrimidin-5-yl)-amine] | 60 nM
CCCN(C(=O)c1ccc(Nc2ncc(F)c(-c3cnc(C)n3C3CCOCC3)n2)cn1)C(C)CC (stereo not drawn) [Example 12, N-Butan-2-yl-5-[[5-fluoro-4-[2-methyl-3-(oxan-4-yl)imidazol-4-yl]pyrimidin-2-yl]amino]-N-propyl-pyridine-2-carboxamide] | 29 nM
Cc1ncc(-c2nc(Nc3cnc(C(=O)N4CCC4)c(Cl)c3)ncc2F)n1C [Example 48, N-[6-(Azetidin-1-ylcarbonyl)-5-chloropyridin-3-yl]-4-(1,2-dimethyl-1H-imidazol-5-yl)-5-fluoropyrimidin-2-amine] | 16 nM
